{"source": "patent US5023353A", "about": "“Deoxoartemisinin: new compound and composition for the treatment of malaria” (priority 1990, dated 1991)", "key": {"[1]": {"tested_on": "Plasmodium falciparum W-2", "assay": "In vitro antimalarial activity, semiautomated microdilution (hypoxanthine incorporation), W-2 clone", "assay_type": "cell-based", "settings": "for IC50: Plasmodium falciparum, read-out: In Vitro Antimalarial Activity IC50, W-2", "experimental": "(§1) The intrinsic antimalarial activities of deoxoartemisinin and various control drugs were quantitatively assessed by using modifications of the semiautomated microdilution method of Desjardins. Deoxoartemisinin was dissolved in DMSO and subsequently diluted in culture medium with 10% plasma. Equimolar starting concentrations were predetermined to generate well-defined concentration curves over a 64-fold range of dilutions. Microtiter plates prepared with serial dilutions of drug and parasite suspensions (at 0.5% parasitemia and 1.5% hematocrit) were incubated at 37° C. in an air-tight plexiglass box, which was flushed with 5% oxygen, 5% carbon dioxide, and 90% nitrogen. After 24 hours of incubation, cultures were labeled with tritiated hypoxanthine and incubated for an additional 18-20 hours prior to harvesting particulate matter on fiber glass strips. Hypoxanthine incorporation in each well was determined by scintillation spectrophotometry and served as an index of specific parasite growth rates. Computer-generated concentration-response curves were analyzed by non-linear regression, and 50% inhibitory concentrations were calculated for each drug. The antimalarial tests were conducted using cultures obtained from the Malaria Laboratory, Division of Experimental Therapeutics, WRAIR/WRAMC, Washington, D.C. The W-2 culture utilized in the testing of Example II was of Indochina origin, chloroquine-resistant and mefloquine-sensitive. The other culture D-6, used in the testing of Example II and reported in Table I, is of Sierra Leone origin, chloroquine-sensitive and mefloquine-resistant.\n(§2) Set out in Table I are the comparative results obtained from in vitro testing the activity of the inventive compound, known antimalarial compounds, artemisinin, and another derivative of artemisinin."}, "[2]": {"tested_on": "Plasmodium falciparum D-6", "assay": "In vitro antimalarial activity, semiautomated microdilution (hypoxanthine incorporation), D-6 clone", "assay_type": "cell-based", "settings": "for IC50: Plasmodium falciparum, read-out: In Vitro Antimalarial Activity IC50, D-6", "experimental": "as §1, §2"}, "[3]": {"settings": "background statement; cited from earlier work"}, "[4]": {"settings": "in vivo; cited from earlier work"}, "[5]": {"assay": "Solubility and lipophilicity"}, "Plasmodium falciparum": {"tested_on": "Plasmodium falciparum", "assay": "Antimalarial screening tests in vitro", "assay_type": "cell-based", "settings": "nonperoxy compounds", "experimental": "as §1, with “The W-2 culture utilized in the testing of Example II was of Indochina origin, chloroquine-resistant and mefloquine-sensitive. The other culture D-6, used in the testing of Example II and reported in Table I, is of Sierra Leone origin, chloroquine-sensitive and mefloquine-resistant.” left out"}, "[6]": {"settings": "W-2 clone, Indochina origin, chloroquine-resistant and mefloquine-sensitive"}, "[7]": {"settings": "D-6 clone, Sierra Leone origin, chloroquine-sensitive and mefloquine-resistant"}}, "note": "Where two headings read alike, the source gives them in different places.", "data": [{"smiles": "C[C@@H]1CC[C@H]2[C@@H](C)C(=O)O[C@@H]3O[C@@]4(C)CC[C@@H]1[C@]32OO4", "note": "[Artemisinin, artemisinin]", "values": [{"measurement": "IC50", "setting": "[1]; [6]", "value": 1.21, "unit": "ng/mL"}, {"measurement": "IC50", "setting": "[2]; [7]", "value": 2.33, "unit": "ng/mL"}, {"measurement": "solubility in water or oils", "setting": "[3]", "value": "only sparingly soluble in either water or oils"}, {"measurement": "side effects", "setting": "[4]", "value": "No side effects"}]}, {"smiles": "CCN(CC)CCCC(C)Nc1ccnc2cc(Cl)ccc12", "note": "(centres unmarked) [Chloroquine]", "values": [{"measurement": "IC50", "setting": "[1]", "value": 55.7, "unit": "ng/mL"}, {"measurement": "IC50", "setting": "[2]", "value": 2.69, "unit": "ng/mL"}]}, {"smiles": "CC1CCC2C(C)COC3OC4(C)CCC1C32OO4", "note": "(centres unmarked) [Deoxoartemisinin, deoxoartemisinin]", "values": [{"measurement": "IC50", "setting": "[1]; [6]", "value": 0.15, "unit": "ng/mL"}, {"measurement": "antimalarial activity in vitro as compared to artemisinin, chloroquine-resistant malaria", "setting": "[1]; against chloroquine-resistant malaria, relative to artemisinin", "value": "four"}, {"measurement": "IC50", "setting": "[2]; [7]", "value": 0.58, "unit": "ng/mL"}, {"measurement": "antimalarial activity in vitro as compared to artemisinin, chloroquine-sensitive malaria", "setting": "[2]; against chloroquine-sensitive malaria, relative to artemisinin", "value": "approximately eight"}, {"measurement": "solubility in organic solvents", "setting": "[5]", "value": "soluble in chloroform, diethylether, acetonitrile, cyclohexane and hexane"}]}, {"smiles": "C[C@@H]1CC[C@H]2[C@@H](C)C(=O)O[C@@H]3O[C@@]4(C)CC[C@@H]1[C@]32O4", "note": "[Deoxyartemisinin, deoxyartemisinin]", "values": [{"measurement": "IC50", "setting": "[2]; [7]", "value": 762, "unit": "ng/mL"}, {"measurement": "activity in the antimalarial screening tests", "setting": "Plasmodium falciparum", "value": "failed to exhibit activity"}]}, {"smiles": "OC(c1cc(C(F)(F)F)nc2c(C(F)(F)F)cccc12)C1CCCCN1", "note": "(centres unmarked) [Mefloquine]", "values": [{"measurement": "IC50", "setting": "[1]; [6]", "value": 0.74, "unit": "ng/mL"}, {"measurement": "IC50", "setting": "[2]; [7]", "value": 7.3, "unit": "ng/mL"}]}, {"smiles": "CCc1nc(N)nc(N)c1-c1ccc(Cl)cc1", "note": "[Pyrimethamine]", "values": [{"measurement": "IC50", "setting": "[1]; [6]", "value": 39.3, "unit": "ng/mL"}, {"measurement": "IC50", "setting": "[2]; [7]", "value": 0.05, "unit": "ng/mL"}]}, {"smiles": "C=C[C@H]1C[N@@]2CC[C@H]1C[C@H]2[C@H](O)c1ccnc2ccc(OC)cc12", "note": "[Quinine]", "values": [{"measurement": "IC50", "setting": "[1]", "value": 59.7, "unit": "ng/mL"}, {"measurement": "IC50", "setting": "[2]", "value": 10.8, "unit": "ng/mL"}]}, {"smiles": "COc1ncnc(NS(=O)(=O)c2ccc(N)cc2)c1OC", "note": "[Sulfadoxine]", "values": [{"measurement": "IC50", "setting": "[1]; [6]", "value": 14300, "unit": "ng/mL"}, {"measurement": "IC50", "setting": "[2]; [7]", "value": 16.4, "unit": "ng/mL"}]}, {"smiles": "CN(C)[C@@H]1C(=O)C(C(N)=O)=C(O)[C@@]2(O)C(=O)C3=C(O)c4c(O)cccc4[C@@](C)(O)[C@H]3C[C@@H]12", "note": "[Tetracycline]", "values": [{"measurement": "IC50", "setting": "[1]", "value": 10200, "unit": "ng/mL"}, {"measurement": "IC50", "setting": "[2]", "value": 7230, "unit": "ng/mL"}]}]}
